Target: T1, PDE4B (human recombinant) (Homo sapiens, UniProt Q07343)
T1 construct: made in house
Experiment: PDE4B inhibition, radioactive SPA and/or IMAP fluorescence polarisation (FP) assay
Type: biochemical
Conditions: comparators: Examples 6, 7, 29, 26, 64, 126, 124, 170, 177
Excerpt: Human recombinant PDE4B, in particular the 2B splice variant thereof (HSPDE4B2B), is disclosed in WO 94/20079 and also M. M. McLaughlin et al., “A low Km, rolipram-sensitive, cAMP-specific phosphodiesterase from human brain: cloning and expression of cDNA, biochemical characterisation of recombinant protein, and tissue distribution of mRNA”, J. Biol. Chem., 1993, 268, 6470-6476. For example, in Example 1 of WO 94/20079, human recombinant PDE4B is described as being expressed in the PDE-deficient yeast Saccharomyces cerevisiae strain GL62, e.g. after induction by addition of 150 uM CuSO4, and 100,000×g supernatant fractions of yeast cell lysates are described for use in the harvesting of PDE4B enzyme.
The ability of compounds to inhibit catalytic activity at PDE4B or 4D (human recombinant), PDE3 (from bovine aorta), PDE5 (human recombinant) or PDE6 (from bovine retina) can optionally be determined by Scintillation Proximity Assay (SPA) in 96-well format.
Test compounds (as a solution in DMSO, preferably about 2 microlitre (ul) volume of DMSO solution) are preincubated at ambient temperature (room temperature, e.g. 19-23° C.) in Wallac Isoplates (code 1450-514) with PDE enzyme in 50 mM Tris-HCl buffer pH 7.5, 8.3 mM MgCl2, 1.7 mM EGTA, 0.05% (w/v) bovine serum albumin for 10-30 minutes (usually 30 minutes). The enzyme concentration is adjusted so that no more than 20% hydrolysis of the substrate defined below occurs in control wells without compound, during the incubation. For the PDE3, PDE4B and PDE4D assays, [5′,8-3H]Adenosine 3′,5′-cyclic phosphate (Amersham Pharmacia Biotech, code TRK.559; or Amersham Biosciences UK Ltd, Pollards Wood, Chalfont St Giles, Buckinghamshire HP8 4SP, UK) is added to give 0.05 uCi per well and about 10 nM final concentration. For the PDE5 and PDE6 assays, [8-^3H]Guanosine 3′,5′-cyclic phosphate (Amersham Pharmacia Biotech, code TRK.392) is added to give 0.05 uCi per well and about 36 nM final concentration. Plates containing assay mixture, preferably approx. 100 ul volume of assay mixture, are mixed on an orbital shaker for 5 minutes and incubated at ambient temperature for 1 hour. Phosphodiesterase SPA beads (Amersham Pharmacia Biotech, code RPNQ 0150) are added (about 1 mg per well) to terminate the assay. Plates are sealed and shaken and allowed to stand at ambient temperature for 35 minutes to 1 hour (preferably 35 minutes) to allow the beads to settle. Bound radioactive product is measured using a WALLAC TRILUX 1450 Microbeta scintillation counter. For inhibition curves, 10 concentrations (1.5 nM-30 uM) of each compound are assayed. Curves are analysed using ActivityBase and XLfit (ID Business Solutions Limited, 2 Ocean Court, Surrey Research Park, Guildford, Surrey GU2 7QB, United Kingdom) Results are expressed as pIC50 values.
The ability of compounds to inhibit catalytic activity at PDE4B (human recombinant) or PDE4D (human recombinant) can optionally be determined by IMAP Fluorescence Polarisation (FP) assay (IMAP Explorer kit, available from Molecular Devices Corporation, Sunnydale, Calif., USA; Molecular Devices code: R8062) in 384-well format.
The IMAP FP assay is able to measure PDE activity in an homogenous, non-radioactive assay format. The FP assay uses the ability of immobilised trivalent metal cations, coated onto nanoparticles (tiny beads), to bind the phosphate group of Fl-AMP that is produced on the hydrolysis of fluorescein-labelled (Fl) cyclic adenosine mono-phosphate (Fl-cAMP) to the non-cyclic Fl-AMP form. […] Binding of Fl-AMP product to the beads (coated with the immobilised trivalent cations) slows the rotation of the bound Fl-AMP and leads to an increase in the fluorescence polarisation ratio of parallel to perpendicular light. Inhibition of the PDE reduces/inhibits this signal increase. […]

T1 sequence (Q07343 1-564 isoform Q07343-2): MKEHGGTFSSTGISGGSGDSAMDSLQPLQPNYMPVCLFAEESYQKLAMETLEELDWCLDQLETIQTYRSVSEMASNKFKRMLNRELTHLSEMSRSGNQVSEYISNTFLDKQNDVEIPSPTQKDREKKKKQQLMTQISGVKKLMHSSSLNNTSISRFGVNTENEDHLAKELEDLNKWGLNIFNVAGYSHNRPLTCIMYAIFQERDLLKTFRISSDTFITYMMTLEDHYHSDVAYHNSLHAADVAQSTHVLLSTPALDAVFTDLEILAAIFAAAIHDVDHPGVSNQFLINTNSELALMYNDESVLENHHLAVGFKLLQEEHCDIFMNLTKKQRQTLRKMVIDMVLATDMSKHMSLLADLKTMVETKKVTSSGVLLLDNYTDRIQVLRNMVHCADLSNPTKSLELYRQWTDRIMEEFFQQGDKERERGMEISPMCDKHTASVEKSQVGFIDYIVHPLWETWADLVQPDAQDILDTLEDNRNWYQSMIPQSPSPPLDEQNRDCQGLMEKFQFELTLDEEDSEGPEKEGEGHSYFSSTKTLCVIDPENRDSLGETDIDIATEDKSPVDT

`CC[C@@H](NC(=O)c1cnc2c(cnn2CC)c1NC1CCOCC1)c1ccccc1` [Example 1, 1-ethyl-N-[(1R)-1-phenylpropyl]-4-(tetrahydro-2H-pyran-4-ylamino)-1H-pyrazolo[3,4-b]pyridine-5-carboxamide] was tested, and the “PDE4B inhibitory activity compared with the comparable Example of opposite stereochemistry at the CR4R5 (benzylic) carbon atom” value was “greater PDE4B inhibitory activity”.

Same assay, conditions: one reading or average of several (ca. 2-6) readings; SPA and/or FP assay; range given for a group of Examples; read-out: PDE4B pIC50 (±about 0.5) (converted)

`CCn1ncc2c(NC3CCCC(O)C3)c(C(=O)NC(C)c3ccc(C)cc3)cnc21` (mixture of isomers) [Example 283, 1-ethyl-4-{[(1S,3R)-and/or (1R,3S)-3-hydroxycyclohexyl]amino}-N-[(1R)-1-(4-methylphenyl)ethyl]-1H-pyrazolo[3,4-b]pyridine-5-carboxamide] and `CCn1ncc2c(NC3CCCC(O)C3)c(C(=O)N[C@H](C)c3ccc(C)cc3)cnc21` (single isomer, unassigned; diastereoisomer 2) [Example 306] fall in the same range of IC50: 0.1 to 2 nM for the first, 0.1 to 2 nM for the second.

`CCC(NC(=O)c1cnc2c(cnn2CC)c1NC1CCC(C(N)=O)CC1)c1ccc(Cl)cc1` (mixture of isomers) [Example 346, 4-{[4-(aminocarbonyl)cyclohexyl]amino}-N-[1-(4-chlorophenyl)propyl]-1-ethyl-1H-pyrazolo[3,4-b]pyridine-5-carboxamide] and `CCC(NC(=O)c1cnc2c(cnn2CC)c1NC1CCC(C(N)=O)CC1)c1ccc(F)cc1` (mixture of isomers) [Example 350, 4-{[4-(aminocarbonyl)cyclohexyl]amino}-1-ethyl-N-[1-(4-fluorophenyl)propyl]-1H-pyrazolo[3,4-b]pyridine-5-carboxamide] fall in the same range of IC50: 0.501 to 3.16 nM for the first, 0.501 to 3.16 nM for the second.

`CC[C@@H](NC(=O)c1cnc2c(cnn2CC)c1NC1CCC(C(N)=O)CC1)c1ccccc1` (mixture of isomers) [Example 347, 4-{[4-(aminocarbonyl)cyclohexyl]amino}-1-ethyl-N-[(1R)-1-phenylpropyl]-1H-pyrazolo[3,4-b]pyridine-5-carboxamide] and `CC[C@@H](NC(=O)c1cnc2c(cnn2CC)c1NC1CCOCC1)c1ccccc1` [Example 1, 1-ethyl-N-[(1R)-1-phenylpropyl]-4-(tetrahydro-2H-pyran-4-ylamino)-1H-pyrazolo[3,4-b]pyridine-5-carboxamide] cannot be ordered by IC50: 0.501 to 3.16 nM for the first, 0.794 to 5.01 nM for the second.

`CCn1ncc2c(NC3CCC(C(N)=O)CC3)c(C(=O)NC(C)c3ccc(OC(F)F)cc3)cnc21` (mixture of isomers) [Example 348, 4-{[4-(aminocarbonyl)cyclohexyl]amino}-N-(1-{4-[(difluoromethyl)oxy]phenyl}ethyl)-1-ethyl-1H-pyrazolo[3,4-b]pyridine-5-carboxamide] and `CCn1ncc2c(NC3CCC(C(N)=O)CC3)c(C(=O)NC(C)c3ccc(Cl)cc3)cnc21` (mixture of isomers) [Example 349, 4-{[4-(aminocarbonyl)cyclohexyl]amino}-N-[1-(4-chlorophenyl)ethyl]-1-ethyl-1H-pyrazolo[3,4-b]pyridine-5-carboxamide] fall in the same range of IC50: 0.501 to 3.16 nM for the first, 0.501 to 3.16 nM for the second.

First: CCn1ncc2c(NC3CCC(C(N)=O)CC3)c(C(=O)N[C@H](C)c3ccc(Br)cc3)cnc21 (mixture of isomers) [Example 351, 4-{[4-(aminocarbonyl)cyclohexyl]amino}-N-[(1R)-1-(4-bromophenyl)ethyl]-1-ethyl-1H-pyrazolo[3,4-b]pyridine-5-carboxamide]
Second: CC[C@H](NC(=O)c1cnc2c(cnn2CC)c1NC1CCOCC1)c1ccccc1 [Example 6, 1-ethyl-N-[(1S)-1-phenylpropyl]-4-(tetrahydro-2H-pyran-4-ylamino)-1H-pyrazolo[3,4-b]pyridine-5-carboxamide]
The IC50 of the first is lower: 0.501 to 3.16 nM for the first, 31.6 to 70.8 nM for the second.

First: CCC(NC(=O)c1cnc2c(cnn2CC)c1NC1CCOCC1)c1ccc(C)cc1C (single isomer, unassigned; enantiomer 2) [Example 304, N-[1-(2,4-dimethylphenyl)propyl]-1-ethyl-4-(tetrahydro-2H-pyran-4-ylamino)-1H-pyrazolo[3,4-b]pyridine-5-carboxamide (Enantiomer 2)]
Second: CCn1ncc2c(NC3CCOCC3)c(C(=O)NC(C)(C)c3ccccc3)cnc21 [Example 2, 1-ethyl-N-(1-methyl-1-phenylethyl)-4-(tetrahydro-2H-pyran-4-ylamino)-1H-pyrazolo[3,4-b]pyridine-5-carboxamide]
The IC50 of the first is lower: 0.1 to 2 nM for the first, 12.6 to 25.1 nM for the second.

Reference: patent US20080132536A1, “PYRAZOLO [3,4-B] PYRIDINE COMPOUNDS, AND THEIR USE AS PDE4 INHIBITORS” (Glaxo Group Limited, priority 2003, published 2008)
